Patent US20260209260A1, “VECTORIZED NHC IRIDIUM(III) COMPLEXES AND USE THEREOF IN PHOTODYNAMIC THERAPY AND/OR DIAGNOSTIC” (CENTRE NATIONAL DE LA RECHERCHE SCIENTIFIQUE, priority 2022, published 2026)
Read-outs that look alike come from different tables or passages of the source.

Assays:
[1] = Lipophilicity: octanol-water partition coefficient, shake-flask method
Method: The octanol-water partition coefficients (P) of all the complexes were determined using a shake-flask method^8. Water (100 mL, distilled after milli-Q purification) and n-octanol (100 mL, Sigma Aldrich, ACS spectrophotometric grade, ≥99%) were shaken together for 24 h to allow saturation of both phases. Stock solutions of the compounds ([…]) were prepared in the aqueous phase. Aliquots (2 mL) of each of these stock solutions were then added to an equal volume of the n-octanol phase. The resultant biphasic solution was mixed for 15 min and then centrifuged (3000 tr/min, 5 min) to separate the phases. The concentrations of the complex in the organic and aqueous phases were then determined using UV absorbance spectroscopy (260 nm). The blank is the water saturated with n-octanol. Log P was defined as logarithm of the ratio of the concentrations of the complex in the organic and aqueous phases (values reported are the means of at least three separated determinations).
The Log P values have been determined by a classical shake-flask method.

[2] = Luminescence emission spectra and quantum yield; type: physicochemical; settings: room temperature; reference POPOP in hexane or rhodamine B in ethanol
Method: Fluorescence and phosphorescence emission spectra were obtained with a HORIBA JOBIN YVON, fluromax-4 and spectrofluorometer.
Luminescence quantum yields were measured according to the method of Demas and Crosby, on solution samples at RT. The quantum yield is defined as: […]
Where ΦP is the quantum yield of the sample, ΦR is the know quantum yield of the reference standard. […].
The luminescence spectra of vectorized iridium(III) complexes were determined in CH2Cl2 at room temperature (Table 3).

[3] = UV/Vis absorption spectra; type: physicochemical; settings: room temperature; for maximum absorption, lowest-lying bands in the visible region over 360 nm: CH2Cl2 or CH2Cl2/MeOH (1:1); for λmax (nm) ε (M^−1 · cm^−1): air-saturated CH2Cl2 or CH2Cl2/MeOH (1:1), 50 μM, ε in brackets, sh = shoulder
Method: UV/Vis absorption spectra were recorded at RT on solutions contained in quartz cuvettes (optical pathlength 1 cm, Hellma®) with a PerkinElmer® UV/VIS/NIR spectrophotometer Lambda 950 and a PerkinElmer® detector UV/VIS/NIR Accessory 2D Detector Module.

[4] = Emission lifetime measurement; type: physicochemical
Method: Fluorescence lifetime measurements were performed by an Edinburgh FLS920 spectrofluorimeter equipped with a TCC900 card for data acquisition in time-correlated single-photon counting experiments (0.5 ns time resolution) with a D2 lamp and an LDH—P-C-405 pulsed diode laser. The estimated experimental error is 2 nm on the band maximum (5% on the lifetime, 10% on the fluorescence quantum yield).
The emission lifetimes of biotin-vectorized complexes (I-a) to (I-l) range from 138 ns to 411 ns, among them, the lifetime of biotin-vectorized complexes (I-c), (I-e), (I-k) are 411, 224, and 322 ns respectively. The emission lifetimes of FTS-vectorized complexes (II-a) to (II-l) range from 167 ns to 486 ns, among them, the lifetime of FTS-vectorized complexes (II-c) and (II-k) are 319 and 486 ns respectively. The emission lifetimes of PSMA-vectorized complexes (III-a) to (III-l) are in the range of 159-649 ns, among them, the lifetime of complexes (III-a) and (III-k) were 248 and 649 ns, respectively. The emission lifetimes of Fc-vectorized complexes (IV-a) to (IV-l) are in the range of 178-228 ns.

[5] = test system: PC-3 prostate cancer cells (PSMA-negative); test: Cell viability assay (MTT), dark and blue light; type: cell-based, Human; settings: for GI50: read-out: GI50; for Photosensitizing index (PI): PC3, dark vs blue light
Method: (§1) Cells were grown in humidified incubators at 37° C. in 5% CO2. Murine MC3T3 osteoblast and NIH-3T3 fibroblast cells-used as non-tumor cell models-were cultured in a-MEM medium and DMEM medium supplemented with 10% fetal bovine serum (FBS) and 1% Penicillin/Streptomycin (P/S) antibiotics, respectively. Human T24 bladder, MGHU3 bladder, Scaber bladder, A549 lung, MCF7 breast, MiaPaCa2 pancreas cancer cells were cultured in DMEM medium supplemented with 10% FBS and 1% P/S antibiotics. Human ASPC-1 pancreas, PC-3 prostate, DU-145 prostate, C4-2B prostate and 22rV1 prostate cancer cells were cultured in RPMI medium supplemented with 10% FBS and 1% P/S antibiotics. Human Hela cervix and HepG2 liver cancer cells were cultured EMEM medium supplemented with 10% FBS and 1% P/S antibiotics.
(§2) MTT reagent (3-(4,5-dimethylthiazol-2-yl)-2,5-diphenyltetrazolium bromide) was used to determine cell death as originally described by Mosmann. Briefly, cells were seeded from 5,000 to 10,000 cells/well in 24-well plates (1 mL) depending on the cell type and allowed to attach overnight. The complexes were prepared in DMSO. The concentration of the complexes was calculated based on the elemental composition of the complexes determined by the elemental analyses. All cell viability experiments were carried out with a fixed concentration of 0.1% (v/v) DMSO. After 72 h of treatment, cells were incubated at 37° C. and 5% CO2 with 25 μL of MTT solution (5 mg/ml; Sigma-Aldrich) in 24-well plates for 3 to 4 h. After solubilization with 500 μL of DMSO, formazan was quantified spectrophotometrically with a microplate reader at 570 nm absorbance (ClarioSTAR, BMG LabTech). […] All the results were calculated from data obtained in at least three independent experiments performed in triplicate.
Irradiation was conducted using an in-house device, a series of blue light LEDs selected according to the absorption spectra of the compounds at 458 nm wavelength with an emitted power of 9.6 Watts. The light fluence was measured at 458 nm with an optical power meter Thorlabs PM100A at different distances between the cell layer and the light source (5 and 10 cm).
(§3) Two sets of experiments were conducted in parallel for each complex to be studied:
(§4) 1. The cells were incubated with the different complexes (in the dark) for 72 h.
(§5) 2. The cells were incubated for 8 h with the different complexes (in the dark), then irradiated for 10 min, followed by an incubation in the dark up to 72 h.

[6] = test system: NIH-3T3 fibroblast cells (non-tumor); test: Cell viability assay (MTT), dark and blue light; type: cell-based, Murine; settings: for GI50: read-out: GI50; for Photosensitizing index (PI): NIH-3T3, dark vs blue light
Method: as §1, with “Human ASPC-1 pancreas, PC-3 prostate, DU-145 prostate, C4-2B prostate and 22rV1 prostate cancer cells were cultured in RPMI medium supplemented with 10% FBS and 1% P/S antibiotics.” left out
as §2, §3, §4, §5

[7] = n-octanol/water, shake-flask, mean of at least three determinations

Structure (SMILES) | Log P [1, 7] | Log P [1] | ΦP emission phosphorescence quantum yield [2] | maximum absorption, lowest-lying bands in the visible region over 360 nm [3] | λmax (nm) ε (M^−1 · cm^−1) [3] | τ1 emission lifetime [4] | SI (vs NIH-3T3) ([5]; PC3, blue light) | GI50 ([5]; PC3, blue light) | SI (vs NIH-3T3) ([5]; PC3, dark) | Photosensitizing index (PI) [5] | GI50 ([6]; NIH-3T3, blue light) | Photosensitizing index (PI) [6] | GI50 ([6]; NIH-3T3, dark) | GI50 ([5]; PC3, dark) | SI (vs NIH-3T3) PC-3 Blue ([5]; blue light 458 nm)
F[P-](F)(F)(F)(F)F.O=C(CCCC[C@@H]1SC[C@@H]2NC(=O)N[C@@H]21)NCCCn1cc[n+]2[c]1[Ir-3]13([c]4ccccc4-c4ccc(C(=O)O)c[n+]41)([c]1ccccc1-c1ccc(C(=O)O)c[n+]13)[n+]1ccccc1-2 [I-f] | −0.68 ± 0.07 | – | – | – | – | – | – | – | – | – | – | – | – | – | –
CC(C)=CCC/C(C)=C/CC/C(C)=C/CSc1ccccc1C(=O)NCCCn1cc[n+]2[c]1[Ir-3]13([c]4ccccc4-c4cccc[n+]41)([c]1ccccc1-c1cccc[n+]13)[n+]1ccccc1-2.F[P-](F)(F)(F)(F)F [II-a] | – | 1.70 ± 0.08 | 0.5% | around 380 nm | 308 (sh) (14540), 380 (4505) nm (M^−1 · cm^−1) | 210 ns | – | – | – | – | – | – | – | – | –
CC(C)=CCC/C(C)=C/CC/C(C)=C/CSc1ccccc1C(=O)NCCCn1cc[n+]2[c]1[Ir-3]13([c]4cc(C)ccc4-c4cccc[n+]41)([c]1cc(C)ccc1-c1cccc[n+]13)[n+]1ccccc1-2.F[P-](F)(F)(F)(F)F [II-b] | – | 1.68 ± 0.02 | 0.4% | around 380 nm | 306 (sh) (15875), 382 (4560) nm (M^−1 · cm^−1) | 167 ns | – | – | – | – | – | – | – | – | –
COC(=O)c1ccc2[c](c1)[Ir-3]13([c]4cc(C(=O)OC)ccc4-c4cccc[n+]41)([c]1n(CCCNC(=O)c4ccccc4SC/C=C(\C)CC/C=C(\C)CCC=C(C)C)cc[n+]1-c1cccc[n+]13)[n+]1ccccc1-2.F[P-](F)(F)(F)(F)F [II-c] | – | 1.08 ± 0.01 | 4.6% | – | 310 (sh) (21710), 355 (5105), 398 (3925) nm (M^−1 · cm^−1) | 319 ns | – | – | – | – | – | – | – | – | –
COC(=O)c1cccc2[c]1[Ir-3]13([c]4c(C(=O)OC)cccc4-c4cccc[n+]41)([c]1n(CCCNC(=O)c4ccccc4SC/C=C(\C)CC/C=C(\C)CCC=C(C)C)cc[n+]1-c1cccc[n+]13)[n+]1ccccc1-2.F[P-](F)(F)(F)(F)F [II-d] | – | 1.40 ± 0.02 | 0.9% | around 370 nm | 372 (4535) nm (M^−1 · cm^−1) | 201 ns | – | – | – | – | – | – | – | – | –
F[P-](F)(F)(F)(F)F.O=C(NCCCn1cc[n+]2[c]1[Ir-3]13([c]4ccccc4-c4cccc[n+]41)([c]1ccccc1-c1cccc[n+]13)[n+]1ccccc1-2)[c-]1cccc1.[Fe+2].c1cc[cH-]c1 [IV-a] | 0.61 ± 0.07 | – | 0.04% | around 380 nm | 304 (sh) (25840), 381 (8080) nm (M^−1 · cm^−1) | 197 ns | 2.8 | 2.4 µM | 9.9 | 1.2 | 6.7 µM | 4.2 | 28.2 µM | – | –
Cc1ccc2[c](c1)[Ir-3]13([c]4cc(C)ccc4-c4cccc[n+]41)([c]1n(CCCNC(=O)[c-]4cccc4)cc[n+]1-c1cccc[n+]13)[n+]1ccccc1-2.F[P-](F)(F)(F)(F)F.[Fe+2].c1cc[cH-]c1 [IV-b] | 1.63 ± 0.02 | – | 0.03% | around 380 nm | 308 (sh) (27820), 379 (8620) nm (M^−1 · cm^−1) | 197 ns | – | – | 16.4 | 2.2 | 13.2 µM | 1.1 | 13.9 µM | 0.85 µM | 33.8
COC(=O)c1ccc2[c](c1)[Ir-3]13([c]4cc(C(=O)OC)ccc4-c4cccc[n+]41)([c]1n(CCCNC(=O)[c-]4cccc4)cc[n+]1-c1cccc[n+]13)[n+]1ccccc1-2.F[P-](F)(F)(F)(F)F.[Fe+2].c1cc[cH-]c1 [IV-c] | – | 0.72 ± 0.03 | 0.04% | – | 304 (sh) (28570), 353 (sh) (7050), 399 (5315), 427 (sh) (3660) nm (M^−1 · cm^−1) | 195 ns | 10.7 | – | 2.2 | 16.8 | 9.3 µM | 3.5 | – | – | –
COC(=O)c1cccc2[c]1[Ir-3]13([c]4c(C(=O)OC)cccc4-c4cccc[n+]41)([c]1n(CCCNC(=O)[c-]4cccc4)cc[n+]1-c1cccc[n+]13)[n+]1ccccc1-2.F[P-](F)(F)(F)(F)F.[Fe+2].c1cc[cH-]c1 [IV-d] | 0.77 ± 0.01 | – | 0.03% | around 370 nm | 335 (sh) (9725), 372 (6540) nm (M^−1 · cm^−1) | 228 ns | 12.0 | 1.3 µM | 1.3 | 17.0 | – | 1.9 | – | 21.6 µM | –
F[P-](F)(F)(F)(F)F.O=C(O)c1ccc2[n+](c1)[Ir-3]13([c]4ccccc4-2)([c]2ccccc2-c2ccc(C(=O)O)c[n+]21)[c]1n(CCCNC(=O)[c-]2cccc2)cc[n+]1-c1cccc[n+]13.[Fe+2].c1cc[cH-]c1 [IV-f] | 1.08 ± 0.03 | – | 0.12% | – | 304 (sh) (22560), 410 (4150) nm (M^−1 · cm^−1) | 202 ns | – | – | – | – | – | – | – | – | –
